Data: US20250099383A1, “COMPOSITIONS AND METHODS FOR DELIVERY OF NUCLEIC ACIDS” (Poseida Therapeutics, Inc., priority 2022, published 2025)

Experiments:
[1] = Physical characteristics of LNPs (particle size, PDI); format: physicochemical; details: for PDI DNA / Particle Size (nm) DNA: LNP with Fluc DNA, compound/DOPE/Cholesterol/DMG-PEG2000 38/50/10.0/2.0, Lipid:DNA 45:1 (w/w); for PDI RNA / Particle Size (nm) RNA: LNP with Fluc mRNA, compound/DOPE/Cholesterol/DMG-PEG2000 41.44/45.85/10/2.7, Lipid:RNA 40:1 (w/w)
Protocol: LNP compositions of the present disclosure comprising exemplary compounds of Formula (I) were prepared by combining various percentages of an exemplary compound of Formula (I), the phospholipid DOPE, the structural lipid cholesterol (Chol) and 1,2-dimyristoyl-sn-glycerol methoxypolyethylene glycol (DMG-PEG2000; Avanti Polar Lipids, Alabaster, Alabama, USA).
Individual 25 mg/ml stock solutions were prepared by solubilizing the lipids in 200-proof HPLC-grade ethanol and stock solutions were stored at −80° C. until formulated. At the time of formulation, the lipid stock solutions were briefly allowed to equilibrate to room temp and then placed on a hot plate maintained at a temperature range of 50-55° C.
A 1 mg/ml solution of the desired mRNA or DNA to be incorporated into the LNPs was added to 150 mM sodium acetate buffer (pH 5.2) to form a stock solution and kept on ice. The aqueous mRNA or DNA was then added to the lipids as shown in Table 4 or 5 and hand-mixed vigorously with a single channel pipettor.
The resultant mRNA or DNA LNP compositions were then transferred to a Repligen Float-A-Lyzer dialysis device-having a molecular weight cut off (MWCO) of 8-10 kDa (Spectrum Chemical Mfg. Corp, CA, USA) and processed by dialysis against phosphate buffered saline (PBS) (dialysate: dialysis buffer volume at least 1:200 v/v), pH 7.4 overnight at 4° C. (or alternatively room temperature for at least 4 hours), to remove the 25% ethanol and achieve a complete buffer exchange. In some experiments the LNPs were further concentrated by in an Amicon® Ultra-4 centrifugal filter unit, MWCO-30 kDa (Millipore Sigma, USA) spun at ˜4100 x g in an ultracentrifuge. The mRNA and DNA LNPs were then stored at 4° C. until further use.
LNP compositions of the present disclosure comprising mRNA or DNA encoding firefly luciferase (hereafter “Fluc”; TriLink) and COMPOUNDS 5-49 were prepared as described in Example 61 by combining one of COMPOUNDS 5-49, the phospholipid DOPE, the structural lipid cholesterol (Chol) and 1,2-dimyristoyl-sn-glycerol methoxypolyethylene glycol (DMG-PEG2000) in the percentages presented in Tables 6 and 7:
The physical characteristics of the resulting LNPs were analyzed.
A 1 mg/ml solution of the 5′-CleanCap--fLuciferase mRNA (TriLink Biotech) to be incorporated into the LNPs was added to 150 mM sodium acetate buffer (pH 5.2) to form a stock solution and kept on ice. The lipid phase was mixed with the aqueous mRNA phase inside a microfluidic chip using a NanoAssemblr® instrument (Precision Nanosystems, Vancouver, BC, Canada) according to the manufacturer's instructions to form LNP compositions comprising encapsulated mRNAs.
The average particle size diameter of the LNPs was approximately 75-150 nm.

[2] = test system: liver cells; test: In vivo LNP delivery of firefly luciferase mRNA to liver, bioluminescent imaging (BLI); set-up: species or system BALB/C mice; details: 0.5 mg/kg fLuciferase mRNA i.v., BLI at 4 hr; for Ave flux (p/s) n = 3: adult female BALB/C mice, LNP as in Example 66; for Mean Liver Luciferase Flux (p/s): LNP compositions of Table 25, adult female BALB/C, n=3
Protocol: Adult female BALB/C mice (n=3/group) were intravenously administered 0.5 mg/kg of 5′-CleanCap-fLuciferase mRNA (TriLink Biotech) formulated with LNP compositions as described in Example 66. One group of mice was treated with vehicle (PBS, Thermo Fisher Scientific, USA) as a negative control.
(§1) The location and extent of luciferase expression in treated and control mice were determined at 4 hr by bioluminescent imaging (BLI) of anesthetized mice using an IVIS Lumina in vivo imaging system (Perkin Elmer) according to the manufacturer's instructions. Briefly, mice were anesthetized using isoflurane in oxygen, and placed supine on a heated stage. Mice were then administered D-luciferin (Perkin-Elmer #122799) IP, and BLI was performed.
Adult female BALB/C mice (n=3/group) were intravenously administered 0.5 mg/kg of 5′-CleanCap-fLuciferase mRNA (TriLink Biotech) formulated with the LNP compositions shown in Table 25. One group of mice was treated with vehicle (PBS, Thermo Fisher Scientific, USA) as a negative control. […]

[3] = Body weight change of mice after LNP administration; format: in vivo, BALB/C mice; details: for Ave weight change (gram) n = 3: 24 hrs after 0.5 mg/kg LNP encapsulating firefly luciferase mRNA, adult female BALB/C mice; for % Body Weight Change 24 hr: LNP compositions of Table 25, 0.5 mg/kg fLuciferase mRNA i.v., 24 hr post-administration vs baseline
Protocol: The mice above were also monitored for changes in body weight after LNP delivery. Mice were manually weighed on a scale before LNP dosage and then weighed 24 hrs after administration of 0.5 mg/kg of LNP article encapsulating Cleancap firefly luciferase mRNA. The average of weight change n=3 is reported below.
In addition, the body weight of mice treated with the LNP compositions of Table 25 was assessed prior to intravenous administration and twenty-four hours post-administration and the body weights at baseline and post-treatment were compared. The average percentage of body weight change for each group of mice treated with each LNP composition of Table 25 is shown in Table 28. […]

[4] = test system: liver cells; test: In vivo LNP delivery of nanoplasmid CMV-firefly luciferase DNA to liver of juvenile mice, BLI; details: juvenile female BALB/C mice age 14 days; 0.25 mg/kg nanoplasmid CMV-firefly luciferase retroorbital i.v.; BLI at 4 hr
Protocol: Juvenile female BALB/C mice of age 14 days (n=4/group) were retroorbitally intravenously administered 0.25 mg/kg of nanoplasmid CMV-firefly luciferase (Nature Technology Corp) formulated with LNP compositions as described in Example 66. One group of mice was treated with vehicle (PBS, Thermo Fisher Scientific, USA) as a negative control.
as §1

SMILES | PDI DNA [1] | Particle Size (nm) DNA [1] [nm] | PDI RNA [1] | Particle Size (nm) RNA [1] [nm] | Ave flux (p/s) n = 3 [2] [p/s] | Ave weight change (gram) n = 3 [3] [gram] | Ave flux (p/s) n = 4 [4] [p/s] | Mean Liver Luciferase Flux (p/s) [2] [p/s] | % Body Weight Change 24 hr [3]
CC(C)=CCCC1=CCC(C(=O)OCCOC(=O)CCN(CCCN(C)CCCN(CCC(=O)OCCOC(=O)C2CC=C(CCC=C(C)C)CC2)CCC(=O)OCCOC(=O)C2CC=C(CCC=C(C)C)CC2)CCC(=O)OCCOC(=O)C2CC=C(CCC=C(C)C)CC2)CC1 (stereo not drawn) [Compound 23] | 0.189 | 332.8 | 0.184 | 434.4 | 6.24E+09 | −5.97 | 3012500000 | – | –
CC(C)CCCC1CCC(C(=O)OCCOC(=O)CCN(CCCN2CCN(CCCN(CCC(=O)OCCOC(=O)C3CCC(CCCC(C)C)CC3)CCC(=O)OCCOC(=O)C3CCC(CCCC(C)C)CC3)CC2)CCC(=O)OCCOC(=O)C2CCC(CCCC(C)C)CC2)CC1 (stereo not drawn) [Compound 29] | 0.081 | 317.2 | 0.197 | 422.3 | 2.44E+10 | −6.07 | 9120000000 | 3.02e10 | −2.4%
CC(C)=CCCC1=CCC(C(=O)OCCOC(=O)CCN(CCCN(C)C)CCC(=O)OCCOC(=O)C2CC=C(CCC=C(C)C)CC2)CC1 (stereo not drawn) [Compound 19, ((3,3′-((3-(dimethylamino)propyl)azanediyl)bis(propanoyl))bis(oxy))bis(ethane-2,1-diyl)bis(4-(4-methylpent-3-en-1-yl)cyclohex-3-enecarboxylate)] | 0.131 | 213.9 | 0.133 | 220.1 | 1.10E+06 | 0.70 | – | – | –
CC(C)=CCCC1=CCC(C(=O)OCCOC(=O)CCN(CCCN2CCN(CCCN(CCC(=O)OCCOC(=O)C3CC=C(CCC=C(C)C)CC3)CCC(=O)OCCOC(=O)C3CC=C(CCC=C(C)C)CC3)CC2)CCC(=O)OCCOC(=O)C2CC=C(CCC=C(C)C)CC2)CC1 (stereo not drawn) [Compound 22] | 0.141 | 255.5 | 0.176 | 330.9 | 9.27E+09 | −6.40 | – | 1.84e10 | +1.2%
CC(C)=CCC/C(C)=C/CCC1=CCC(C(=O)OCCOC(=O)CCN(CCCN2CCN(CCCN(CCC(=O)OCCOC(=O)C3CC=C(CC/C=C(\C)CCC=C(C)C)CC3)CCC(=O)OCCOC(=O)C3CC=C(CC/C=C(\C)CCC=C(C)C)CC3)CC2)CCC(=O)OCCOC(=O)C2CC=C(CC/C=C(\C)CCC=C(C)C)CC2)CC1 (stereo not drawn) [Compound 9, ((3,3′,3″,3′″-((piperazine-1,4-diylbis(propane-3,1-diyl))bis(azanetriyl))tetrakis(propanoyl))tetrakis(oxy))tetrakis(ethane-2,1-diyl)tetrakis(4-((E)-4,8-dimethylnona-3,7-dien-1-yl)cyclohex-3-enecarboxylate)] | 0.123 | 330.9 | 0.129 | 314.0 | 1.77E+10 | −3.03 | – | 4.62e10 | +1.4%
CC(C)CCCC(C)CCCC1CCC(C(=O)OCCOC(=O)CCN(CCCN2CCN(CCCN(CCC(=O)OCCOC(=O)C3CCC(CCCC(C)CCCC(C)C)CC3)CCC(=O)OCCOC(=O)C3CCC(CCCC(C)CCCC(C)C)CC3)CC2)CCC(=O)OCCOC(=O)C2CCC(CCCC(C)CCCC(C)C)CC2)CC1 (stereo not drawn) [Compound 16, ((3,3′,3″,3″-((piperazine-1,4-diylbis(propane-3,1-diyl))bis(azanetriyl))tetrakis(propanoyl))tetrakis(oxy))tetrakis(ethane-2,1-diyl)tetrakis(4-(4,8-dimethylnonyl)cyclohexanecarboxylate)] | 0.108 | 326.3 | 0.142 | 354.0 | 3.67E+10 | −3.60 | 8905000000 | – | –
